According to ChEMBL document CHEMBL4673296 (J Med Chem, 2020):

Target: T1, Serine/threonine-protein kinase ULK2 (Homo sapiens, UniProt Q8IYT8)
T1 sequence (Q8IYT8 whole entry): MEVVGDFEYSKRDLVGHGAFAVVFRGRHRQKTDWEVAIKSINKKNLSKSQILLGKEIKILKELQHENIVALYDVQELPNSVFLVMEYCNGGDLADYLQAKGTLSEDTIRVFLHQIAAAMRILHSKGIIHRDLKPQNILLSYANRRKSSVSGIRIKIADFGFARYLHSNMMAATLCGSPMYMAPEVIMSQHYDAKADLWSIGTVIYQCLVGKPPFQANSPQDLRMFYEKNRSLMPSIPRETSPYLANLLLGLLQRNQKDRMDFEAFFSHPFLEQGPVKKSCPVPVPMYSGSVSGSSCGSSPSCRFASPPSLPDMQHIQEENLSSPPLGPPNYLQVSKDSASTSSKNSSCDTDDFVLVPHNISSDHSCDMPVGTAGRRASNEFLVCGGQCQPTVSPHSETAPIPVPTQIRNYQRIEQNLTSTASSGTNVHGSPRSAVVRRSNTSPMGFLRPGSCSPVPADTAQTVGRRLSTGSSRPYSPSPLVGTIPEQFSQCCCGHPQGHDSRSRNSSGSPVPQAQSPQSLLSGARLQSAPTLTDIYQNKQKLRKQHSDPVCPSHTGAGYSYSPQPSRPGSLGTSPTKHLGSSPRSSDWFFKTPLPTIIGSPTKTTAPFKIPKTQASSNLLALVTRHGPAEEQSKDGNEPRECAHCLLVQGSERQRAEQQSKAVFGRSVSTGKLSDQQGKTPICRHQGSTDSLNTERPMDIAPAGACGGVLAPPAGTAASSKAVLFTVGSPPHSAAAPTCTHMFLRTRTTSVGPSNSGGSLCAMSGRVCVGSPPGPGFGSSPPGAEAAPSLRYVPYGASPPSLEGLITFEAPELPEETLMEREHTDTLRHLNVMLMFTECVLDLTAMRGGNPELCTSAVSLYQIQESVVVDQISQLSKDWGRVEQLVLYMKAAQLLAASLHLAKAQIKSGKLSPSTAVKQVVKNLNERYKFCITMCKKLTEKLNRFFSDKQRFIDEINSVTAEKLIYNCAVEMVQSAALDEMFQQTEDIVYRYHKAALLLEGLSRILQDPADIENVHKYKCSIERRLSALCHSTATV
Experiment: Inhibition of recombinant human ULK2 (1 to 478 residues) expressed in Sf9 cells using myelin basic protein as substrate by ADP-glo assay

COc1ccc(Nc2ncc(C(F)(F)F)c(NC3CC3)n2)cc1OC
IC50: 476 nM
